Like-named read-outs stand apart in the source and are kept apart here.
Legend:
SpCas9 [1] = biological target: T1, SpCas9 (Streptococcus pyogenes serotype M1, UniProt Q99ZW2); assay: Cellular thermal shift assay (CETSA) in WM793 melanoma cells; assay type: cell-based, S. pyogenes; conditions: 15 μM, 24 h, WM793 cells stably expressing SpCas9
Method: Cellular Thermal Shift Assay (CETSA). Approximately 1× 10^6 cells pre-incubated with either DMSO or 15 μM BRD0539 for 24 h were resuspended in PBS and transferred to 200 μL PCR tubes. The suspended cells were heated to a different temperature for 3 min followed by lysis in 100 μL RIPA buffer containing protease inhibitors at 4° C. for 30 min. The clear cell lysate was collected by centrifuging the suspensions at 20,000×g for 20 min. The supernatant was transferred to a fresh tube and processed for Western blotting. Western blotting was performed using SDS-PAGE. In a typical experiment, 10 μg of proteins were electrophoresed on a 4-12% Bis-Tris gel and proteins were transferred to a PVDF membrane and probed with primary anti-SpCas9 antibody (abcam #ab191468). The membrane was imaged and bands were quantified using the LI-COR Odyssey imaging system. The CETSA curves were fitted with the equation, y=(U-L)/(1+e^(−(A/T−1)B))+L where, U and L are the upper and lower asymptotes, A is a half-way temperature, and B controls the slope of the sigmoid; temperature T is expressed in K. After the fitting, the data were re-normalized by dividing by U and the Tm was calculated using the formula Tm=AB/(B+log(1−2L/U)).

SpCas9 [2] = biological target: T1, SpCas9; assay: HiBiT assay in U2OS.eGFP.PEST cells; assay type: cell-based, S. pyogenes; design: host or cells: U2OS.eGFP.PEST; conditions: 24 h
Method: HiBiT assay. For SpCas9 expression in cells, the previously described JDS246 plasmid was used (Kleinstiver et al., 2015b). ssODN donor DNA template with the HiBiT tag was purchased as single-stranded Ultramer DNA Oligonucleotides (IDT) and resuspended to 40 μM in nuclease-free water. For the assay, 2×10^5 cells were co-transfected with 300 ng Cas9 plasmid, 75 ng sgRNA plasmid and 100 ng ssODN using the DN-100 program of Lonza 4D nucleofector according to the manufacturer's protocols. For negative controls, either the sgRNA plasmid or the ssODN was omitted. 20,000 transfected cells were plated in each well of a 96-well plate (Corning 3904). Immediately after transfection, cells were treated with varying concentrations of BRD0539 or BRD3433 and incubated at 37° C. with 5% CO2. 24 h after transfection, the cells were washed once with PBS and kept in 80 μL PBS. An equal volume of the Nano-Glo HiBiT Lytic Reagent (Promega N3030), consisting of Nano-Glo HiBiT Lytic Buffer, Nano-Glo HiBiT Lytic Substrate, and LgBiT Protein, was added according to the manufacturer's protocol, and cells were incubated for 10 min at ambient temperature with shaking at 600 rpm (Schwinn et al., 2018a). The cells were then incubated for an additional 10 min without shaking at room temperature to allow equilibration of the HiBiT and LgBiT in the lysate. The lysate was then transferred to a white plate (Corning 3990) and luminescence was measured using an Envision plate reader (Perkin-Elmer) with 1 s of integration time.

SpCas9 [3] = biological target: T1, SpCas9; assay: Reversibility of SpCas9 inhibition (pulse-chase, eGFP-disruption assay); assay type: cell-based, S. pyogenes; design: made in house; host or cells: E. coli Rosetta (DE3); conditions: 15 μM BRD0539 or SpCas9:gRNA:AcrIIA4 complex, media swap 2-24 h
Method: Reversal of BRD0539-mediated inhibition of SpCas9 was performed in the eGFP-disruption assay where 2×10^5 U2OS.eGFP.PEST cells were nucleofected with preformed SpCas9:gRNA complex as previously discussed. Approximately 22,000 transfected cells/well were plated in 4 replicates in a 96-well plate (Corning® 3904) along with 15 μM of BRD0539 or DMSO. For AcrIIA4 reversibility experiment, a preformed SpCas9:gRNA (10 pmol) was incubated with AcrIIA4 (5×) for 10 min and then nucleofected to U2OS.eGFP.PEST cells following the aforementioned protocol. The media were swapped with the fresh media containing no BRD0539/AcrIIA4 at the indicated time point (2-24 h) and the cells were allowed to grow until 24 h post-nucleofection. Cells were then fixed using 4% paraformaldehyde and imaged with the HCS NuclearMask™ Blue Stain (Life Technologies) as the nuclear counter-staining agent. Imaging was performed with an ImageXpress Micro automated microscope (Molecular Devices) at 10× magnification under three excitation channels (blue, green and red) acquiring nine sites per well. Images were analyzed using MetaXpress software and data were plotted using GraphPad Prism 6.

SpCas9:gRNA complex = biological target: T2, SpCas9:gRNA complex (Streptococcus pyogenes serotype M1, UniProt Q99ZW2); assay: 19F NMR binding assay; design: species or system S. pyogenes; conditions: for receptor occupancy at 50 µM: read-out: Fractional Occupancy
T2 construct: made in house; host or cells: E. coli Rosetta (DE3)
Method: Table 8 NMR parameters used for analysis of BRD7087 binding to SpCas9:gRNA complex. The binding study of BRD7087 to SpCas9:gRNA complex was analyzed based on the method described by Shortridge et. al. The linewidth (LW) increases with increasing SpCas9:gRNA concentration, as expected. Peak intensity values were used to measure the fractional occupancy using the equation Fractional Occupancy=(1−Ibound/I0), where I0 is the intensity of the peak with no protein in the sample. The peak area remains relatively constant, as expected for a fixed concentration of ligand.
NMR binding assay. All samples were prepared with 50 μM BRD7087 in 20 mM Tris buffer (pH 7.4) with varying concentrations of SpCas9:gRNA in a 3 mm NMR tube. Experiments were performed on a 600 MHZ (^19F: 564.71 MHZ) Bruker Avance III NMR spectrometer equipped with a 5 mm QCI-F CryoProbe and a SampleJet for automated sample handling. To acquire spectra, a standard one-pulse ^19F experiment with WALTZ-16 for proton decoupling during acquisition, a 5 second recycle delay, and 256 scans were used. All spectra were recorded at 280 K. NMR data were apodized with a 1 Hz exponential function prior to Fourier transformation. All spectra were baseline corrected, and peak widths and intensities were extracted using the automated line-fitting feature provided with the MNova software package.

[4] = 50 μM BRD7087, 0.75 μM SpCas9:gRNA
[5] = 50 μM BRD7087, 1.0 μM SpCas9:gRNA
[6] = 50 μM BRD7087, 1.25 μM SpCas9:gRNA
[7] = 50 μM BRD7087, 1.5 μM SpCas9:gRNA
[8] = 50 μM BRD7087, 1.75 μM SpCas9:gRNA

T1 sequence (Q99ZW2 whole entry): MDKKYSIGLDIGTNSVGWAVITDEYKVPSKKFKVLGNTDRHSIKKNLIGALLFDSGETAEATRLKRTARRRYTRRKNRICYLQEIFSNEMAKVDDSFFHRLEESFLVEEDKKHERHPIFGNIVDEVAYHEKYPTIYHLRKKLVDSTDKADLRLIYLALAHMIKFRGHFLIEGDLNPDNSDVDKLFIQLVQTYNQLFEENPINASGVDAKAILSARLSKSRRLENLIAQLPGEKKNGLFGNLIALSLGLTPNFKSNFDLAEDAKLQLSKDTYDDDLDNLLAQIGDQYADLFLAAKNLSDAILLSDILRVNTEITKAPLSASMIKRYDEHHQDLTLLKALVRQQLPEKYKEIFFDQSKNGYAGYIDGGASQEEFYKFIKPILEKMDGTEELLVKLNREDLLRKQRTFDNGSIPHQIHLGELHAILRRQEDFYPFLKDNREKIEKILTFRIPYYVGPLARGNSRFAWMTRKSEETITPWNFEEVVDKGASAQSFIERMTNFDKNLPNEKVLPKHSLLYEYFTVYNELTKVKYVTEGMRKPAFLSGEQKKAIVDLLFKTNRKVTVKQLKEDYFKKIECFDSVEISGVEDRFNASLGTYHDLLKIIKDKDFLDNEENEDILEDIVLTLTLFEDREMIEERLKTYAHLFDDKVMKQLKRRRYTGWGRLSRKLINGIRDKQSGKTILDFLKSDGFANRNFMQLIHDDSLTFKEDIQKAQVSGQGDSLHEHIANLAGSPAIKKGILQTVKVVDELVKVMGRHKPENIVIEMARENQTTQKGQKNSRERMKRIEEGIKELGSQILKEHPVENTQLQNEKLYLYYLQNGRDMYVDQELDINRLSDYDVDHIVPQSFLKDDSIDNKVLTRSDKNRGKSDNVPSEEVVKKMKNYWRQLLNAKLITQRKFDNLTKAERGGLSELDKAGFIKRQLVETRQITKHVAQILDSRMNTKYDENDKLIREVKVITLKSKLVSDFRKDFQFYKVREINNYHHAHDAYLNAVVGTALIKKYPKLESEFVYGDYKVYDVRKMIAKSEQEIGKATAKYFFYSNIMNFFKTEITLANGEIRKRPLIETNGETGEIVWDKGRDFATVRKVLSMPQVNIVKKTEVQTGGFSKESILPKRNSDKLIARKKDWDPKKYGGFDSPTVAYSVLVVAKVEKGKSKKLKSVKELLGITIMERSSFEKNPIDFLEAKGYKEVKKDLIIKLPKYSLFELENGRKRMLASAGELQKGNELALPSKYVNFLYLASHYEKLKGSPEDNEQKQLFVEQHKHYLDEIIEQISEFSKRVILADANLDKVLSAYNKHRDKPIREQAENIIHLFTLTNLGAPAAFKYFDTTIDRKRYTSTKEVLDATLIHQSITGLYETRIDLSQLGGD
T2 sequence (Q99ZW2 whole entry, one chain of several): as the sequence (Q99ZW2 whole entry) above

## Cc1ccc(S(=O)(=O)N2CC[C@@H]3[C@H](CO)Nc4ccc(-c5ccccc5F)cc4[C@@H]32)cc1 [BRD0539, ((3aR,4R,9bR)-8-(2-fluorophenyl)-1-tosyl-2,3,3a,4,5,9b-hexahydro-1H-pyrrolo[3,2-c]quinolin-4-yl) methanol]
SpCas9 [1]
  lowering in the melting temperature of SpCas9: ~2.5 °C
SpCas9 [2]
  inhibition of SpCas9 in the HiBiT assay (in words): dose-dependent inhibition
SpCas9 [2]; tested from 4.8-15 μM
  higher activity of BRD0539 than BRD3497 and BRD9419 in the HiBiT assay: greater than two-fold
SpCas9 [3]
  reversibility of SpCas9 inhibition (in words): reversible inhibition

## OC[C@H]1Nc2ccc(-c3cccc(F)c3)cc2[C@H]2[C@@H]1CCN2Cc1ccncc1 [BRD7087, ((3aR,4S,9bR)-8-(3-Fluorophenyl)-1-(pyridin-4-ylmethyl)-2,3,3a,4,5,9b-hexahydro-1H-pyrrolo[3,2-c]quinolin-4-yl) methanol]
SpCas9:gRNA complex; [4]
  LW (linewidth of 19F signal): 4.3 Hz
  receptor occupancy at 50 µM: 13.1%
SpCas9:gRNA complex; [5]
  LW (linewidth of 19F signal): 4.6 Hz
  receptor occupancy at 50 µM: 18.2%
SpCas9:gRNA complex; [6]
  LW (linewidth of 19F signal): 5.3 Hz
  receptor occupancy at 50 µM: 30.4%
SpCas9:gRNA complex; [7]
  LW (linewidth of 19F signal): 5.9 Hz
  receptor occupancy at 50 µM: 34.4%
SpCas9:gRNA complex; [8]
  LW (linewidth of 19F signal): 6.3 Hz
  receptor occupancy at 50 µM: 40.1%
SpCas9:gRNA complex; significant broadening at protein concentrations as low as 0.75 μM
  binding to SpCas9:gRNA by 19F line broadening (in words): tight binding

From patent US12391685B2, “Inhibitors of RNA-guided nuclease target binding and uses thereof” (THE BROAD INSTITUTE, INC., priority 2018, dated 2025)
